Assay results from patent publication US12324827B2, “Combination therapy for the treatment of migraines” (The University of Chicago, priority 2019, dated 2025).

Tested on: trigeminocervical complex c-fos
Test: Trigeminocervical c-fos immunostaining after recurrent CSD, nasal IGF-1 with or without intravenous anti-CGRP antibody (Example 5)
Assay type: in vivo, rat
Experimental: Migraine will be modeled using recurrent CSD (Grinberg et al., 2019; Won and Kraig 2019a,b; Won and Kraig, 2020). Briefly, the day before recurrent CSD, animals are anesthetized with inhalational isoflurane in oxygen (2-5%) and treated with intranasal IGF-1 (150 μg in 50 μl succinate buffer).
Anesthetized animals are then transferred to a standard stereotaxic head holder under 2-5% isoflurane inhalational anesthesia. Eyes are coated with Artificial Tears and head shaved, cleansed with Betadine, and 0.1 mL of 0.25% Bupivacaine is injected subcutaneously to either side of what will be a left of midline head incision made five minutes later. The underlying skull is scraped free of soft tissue and hemostasis achieved with bone wax. Two 1-2 mm craniotomies are drilled with a Dremel tool at +3 mm anterior to bregma and two mm lateral to the midline (for 0.5M KCl 10-30 nL pressure injections used to initiate CSD. A second craniotomy is placed six mm caudal to bregma and 4.5 mm lateral to the midline (for recording CSD. The surgery area is wiped with Betadine and incision closed with three wound clips. Animals are allowed to awaken and then returned to overnight standard Animal Facility Housing.
The next day (i.e., 20-24 hours later) animals are again be anesthetized as above with inhalational isoflurane and the left femoral vein cannulated for antibody infusion. Select groups of animals (see below) are treated with intravenous infusion either 1 mg/kg anti-CGRP (ab81887) or isotype IgG2a control in 0.5-0.6 ml normal saline. After infusions, the femoral incision is closed with wound clips.
Animals are stabilized for an hour under anesthesia (1.5% isoflurane in oxygen) after head sutures are removed, eyes coated with Artificial Tears and animals made ready for initiation and recording of CSD under deeper (5%) isoflurane in oxygen, which is then lowered back to 1.5% isoflurane in oxygen during CSD recordings. CSD is initiated as described above one to four hours after antibody infusion. All animals receive nine KCl injections. Then, isoflurane is raised to 5% and animals anesthetized with intraperitoneal ketamine and Xylazine followed quickly by euthanasia via intra-cardiac perfusion with 0.1 mL heparin (1,000 units/ml), then 250 ml of normal saline and finally 250 ml 4% paraformaldehyde in 0.2 M phosphate buffer. […]
2. […] All animals for nasal delivery of IGF-1 plus intravenous treatment (i.e., one ml saline or anti-CGRP antibody) followed by 90 minutes of evoked CSDs) were analyzed for trigeminal cervical complex c-fos immunostaining and trigeminal ganglion malondialdehyde immunostaining as previously described (Won and Kraig, 2020). […]

Question: “IGF-1: human recombinant IGF-1 (#191-G1; R&D Systems), 150 μg in 50 μL sodium succinate buffer, delivered nose-to-brain” was tested. Which “reduction in trigeminocervical c-fos activation from recurrent CSD” value (counts from −4.5 and 6.0 mm caudal to the obex) did it give?
Answer: Its value is 45%.

Question: What about the “ln ratio (IGF-1/sham) of trigeminocervical c-fos” value (nasal IGF-1 alone, original Won and Kraig 2020 data, n=5) of the same substance?
Answer: Its value is −0.56±0.08.

Question: What about the “ln ratio (IGF-1/sham) of trigeminocervical c-fos” value (nasal IGF-1 plus intravenous saline a day later, new data, n=3) of the same substance?
Answer: The value was −0.548±0.16.

Question: And the “ln ratio of trigeminocervical c-fos, combined groups” value (nasal IGF-1 with or without subsequent intravenous saline, n=10)?
Answer: The value was −0.547±0.11.
